In patent publication US4661297A, “Basic ethers of 7-oxo-7H-benzo(c) fluorene and a process for their production” (SPOFA, spojene podniky pro zdravotnickou vyrobu, priority 1980, dated 1987):
“And” between values parts separate entries of the source, which are not always exact repeats. Identical values can stand only once. “Also recorded” adds a separate entry of the source. Like-named read-outs stand apart in the source and are kept apart here.

Tests used:
[1] = test system: Ehrlich's ascitic carcinoma; experiment: Incorporation of 14C-adenine and 14C-valine into cellular fraction of Ehrlich's ascitic carcinoma in vitro; type: cell-based, mouse; details: for Radioactivity incorporation, adenine: control 1060 cpm; for Radioactivity incorporation, valine: control 2455 cpm; for IC50 / activity at 75 µM / activity at 150 µM / activity at 18.75 µM / activity at 37.5 µM: Mus musculus, Ehrlich
Text: In Table 4, the effect of Tiloron (NSC 143969; 2,7-bis-[2-(diethylamino)ethoxy]fluorene-9-one) and 5-(2-dimethylaminoethoxy)-7-oxo-7H-benzo(c) fluorene hydrochloride are compared on incorporation of ^14 C-adenine and ^14 C-valine with the cellular fraction of Ehrlich's ascitic carcinoma (insoluble in trichloacetic acid). The tests in vitro reveal that the composition of the invention was more than 10 times as effective as Tiloron. The inhibition of incorporation of adenine and valine into the used system of tumor cells is considered as an indication of an anti-tumorous, cytostatic action. This biological activity of the described compound is considerably greater than that of its congener Tiloron. (See also Table 4.)
Effects of Tiloron and substance 13468 on incorporation of ^14
C-adenine and ^14 C-valine
into cellular fraction of Ehrlichs ascitic carcinoma, insoluble in
in vitro. Radioactivity incorporation expressed in cpm.
IC50 = concentration inhibiting incorporation by 50 percent.

Yoshida's Tumor = experiment: Inhibition of incorporation of labelled substrates in Yoshida's tumor; type: cell-based; details: Rattus norvegicus, read-out: IC50
Text: Tumor growth may be observed clinically or in experiments in vivo, that is, with experimental animals, or in vitro, for example, in tissue cultures prepared from tumors. Assessment of tumor growth may be effected by measuring the weight of the tumor mass or, more effectively, by measuring the radioactivity after incorporation therein of certain substances of natural origin such as amino acids, adenine, thymidine and the like labelled with radioactive atoms such as ^14 C, ^3 H, etc.
Thus, by way of exemplification, the IC^50 values (inhibitory concentration which lowered the initial rate of ^14 C incorporation to 50% of control) are shown in Table VI, below (Yoshida's Tumor, (U-^14 C) amino acid mixture)
The ^IC 50 values of compound 13468 are also shown in Table VII with varying substrates.

[2] = test system: haemolysins (antibody formation); experiment: Haemolysin titre in mouse serum after ram erythrocyte immunization; type: in vivo; details: day 9; for Haemolysins titre: control 37
Text: (§1) Haemagglutanin and haemolysin titres in mouse serum on day 9 after ram
(§2) immunization under effect of substance 13468. Substance injected
(§3) either for 5 days (2 days before, on day of, 2 days after immunization)
(§4) (2 days before, on day of, 8 days after immunization). Groups of 12
(§5) expressed by mean value of highest attenuation of serum eliciting

[3] = test system: human myelogenous leukemia cells; experiment: DNA biosynthesis inhibition in human myelogenous leukemia cells; type: cell-based
Ehrlich tumor = experiment: Inhibition of incorporation of labelled substrate in Ehrlich tumor; type: cell-based; details: Mus musculus, substrate L-(U-14C) amino acid mixture
Acute toxicity in mice = details: mouse, in vivo, mice S, males 22-24 gram
Text: The anti-tumor compounds described herein have also been studied from the standpoint of toxicity and the conclusion drawn that they are not toxic to mammalian hosts. The toxicological data set forth in Table IX, below, supports this conclusion.

[4] = test system: haemagglutinins (antibody formation); experiment: Haemagglutinin titre in mouse serum after ram erythrocyte immunization; type: in vivo; details: for Haemagglutinins % of control titre / Haemagglutinins titre: day 9; for Haemagglutinins titre: control 343
Text: as §1, §2, §3, §4, §5

CN(C)CCOc1cc2c(c3ccccc13)-c1ccccc1C2=O.Cl [compound 13468, 5-(2-Dimethylaminoethoxy)-7-oxo-7H-benzo(c) fluorene hydrochloride]
Radioactivity incorporation, adenine ([1]; 75 μM): 266 cpm | Radioactivity incorporation, valine ([1]; 75 μM): 887 cpm | Radioactivity incorporation, adenine ([1]; 150 μM): 59 cpm | Radioactivity incorporation, valine ([1]; 150 μM): 349 cpm | Radioactivity incorporation, adenine ([1]; 18,75 μM): 757 cpm | Radioactivity incorporation, valine ([1]; 18,75 μM): 2394 cpm | Radioactivity incorporation, adenine ([1]; 37,5 μM): 714 cpm | Radioactivity incorporation, valine ([1]; 37,5 μM): 2253 cpm | IC50 ([1]; read-out: IC50 (concentration inhibiting incorporation by 50 percent), adenine): 53 µM | IC50 ([1]; read-out: IC50 (concentration inhibiting incorporation by 50 percent), valine): 65 µM | activity at 75 µM ([1]; 75 μM, read-out: Incorporation of adenine relative to control (0 μM = 100%)): 25% | activity at 75 µM ([1]; 75 μM, read-out: Incorporation of valine relative to control (0 μM = 100%)): 36% | activity at 150 µM ([1]; 150 μM, read-out: Incorporation of adenine relative to control (0 μM = 100%)): 6% | activity at 150 µM ([1]; 150 μM, read-out: Incorporation of valine relative to control (0 μM = 100%)): 14% | activity at 18.75 µM ([1]; 18,75 μM, read-out: Incorporation of adenine relative to control (0 μM = 100%)): 71% | activity at 18.75 µM ([1]; 18,75 μM, read-out: Incorporation of valine relative to control (0 μM = 100%)): 98% | activity at 37.5 µM ([1]; 37,5 μM, read-out: Incorporation of adenine relative to control (0 μM = 100%)): 87% | activity at 37.5 µM ([1]; 37,5 μM, read-out: Incorporation of valine relative to control (0 μM = 100%)): 92% | times as effective as Tiloron ([1]; adenine and valine incorporation, in vitro): more than 10 times | IC50 (Yoshida's Tumor; substrate 5-iodo-2-deoxy(6-3H) uridine): 12 µM | IC50 (Yoshida's Tumor; substrate (6-3H) uridine): 36 µM and 12.6 µg/mL | IC50 (Yoshida's Tumor; substrate (thymine U-14C) thymidine): 4 µM | IC50 (Yoshida's Tumor; substrate L-(U-14)leucine): 29 µM | IC50 (Yoshida's Tumor; substrate L-(U-14C) amino acid mixture, Table VII): 32 µM | Haemolysins % of control titre ([2]; s.c. 5×8 mg/kg): 132% | Haemolysins titre ([2]; s.c. 5×8 mg/kg): 49 | Haemolysins % of control titre ([2]; s.c. 5×40 mg/kg): under 27% | Haemolysins titre ([2]; s.c. 5×40 mg/kg, Suppressed): under 10 | Haemolysins % of control titre ([2]; s.c. 11×8 mg/kg): under 27% | Haemolysins titre ([2]; s.c. 11×8 mg/kg, Suppressed): under 10 | Haemolysins % of control titre ([2]; s.c. 11×40 mg/kg): under 27% | Haemolysins titre ([2]; s.c. 11×40 mg/kg, Suppressed): under 10 | IC50 [3]: 5 µM | IC50 (Ehrlich tumor): 31 µM | LD50 (Acute toxicity in mice; iv, intravenously): 90 mg/kg | LD50 (Acute toxicity in mice; po, orally): 600 mg/kg | LD50 (Acute toxicity in mice; sc, subcutaneously): 490 mg/kg | Immunosuppressive effect on antibody formation ([4]; mice, in words, hydrochloride): immunosuppressive effects on antibody formation in mice; also recorded: inhibition of the formation of immunological serum anti-bodies | Haemagglutinins % of control titre ([4]; s.c. 5×8 mg/kg): 71% | Haemagglutinins titre ([4]; s.c. 5×8 mg/kg): 243 | Haemagglutinins % of control titre ([4]; s.c. 5×40 mg/kg): 3.5% | Haemagglutinins titre ([4]; s.c. 5×40 mg/kg): 12 | Haemagglutinins % of control titre ([4]; s.c. 11×8 mg/kg): 71% | Haemagglutinins titre ([4]; s.c. 11×8 mg/kg): 243 | Haemagglutinins % of control titre ([4]; s.c. 11×40 mg/kg, Suppressed): under 2.9% | Haemagglutinins titre ([4]; s.c. 11×40 mg/kg, Suppressed): under 10
